Experimental data from PubChem BioAssay AID266 (DTP/NCI, 2004).
Several values for one entry are separate records, joined by “and”; a condition that tells them apart may be missing. Identical values can stand only once. Records with an inconclusive call do not appear.

Test system: Nude mice, LX-1 lung xenograft intrarenal, tumor weight T/C
Assay: NCI In Vivo Anticancer Drug Screen. Data for tumor model Human Lung LX-1 Xenograft (intrarenal inoculation) in NU/NU BALB/C (nude) mice
Details: endpoint: mean tumor weight change, higher = larger tumour
Experimental: The antitumor activity of compounds was measured in mice bearing transplantable tumors. Survival or tumor size were measured and the results are expressed as the measurement made in the treated group (T) divided by the measurement made in the vehicle treated control group (C). The tumor model used in this assay is Human Lung LX-1 Xenograft (intrarenal inoculation) in NU/NU BALB/C (nude) mice

[1] = dose: 300.0 mg/kg/injection, schedule: Q04DX003 (sc), vehicle: saline with Tween-80
[2] = dose: 600.0 mg/kg/injection, schedule: Q04DX003 (sc), vehicle: saline with Tween-80
[3] = dose: 1200.0 mg/kg/injection, schedule: Q04DX003 (sc), vehicle: saline with Tween-80
[4] = dose: 2400.0 mg/kg/injection, schedule: Q04DX003 (sc), vehicle: saline with Tween-80
[5] = dose: 50.0 mg/kg/injection, schedule: Q01DX010 (sc), vehicle: Klucel (hydroxypropylcellulose) (HPC)
[6] = dose: 200.0 mg/kg/injection, schedule: Q01DX010 (sc), vehicle: saline
[7] = dose: 150.0 mg/kg/injection, schedule: Q04DX003 (sc), vehicle: saline
[8] = dose: 300.0 mg/kg/injection, schedule: Q04DX003 (sc), vehicle: saline
[9] = dose: 100.0 mg/kg/injection, schedule: Q01DX010 (sc), vehicle: Klucel (hydroxypropylcellulose) (HPC)
[10] = dose: 200.0 mg/kg/injection, schedule: Q01DX010 (sc), vehicle: Klucel (hydroxypropylcellulose) (HPC)

## COc1cccc2c1C(=O)c1c(O)c3c(c(O)c1C2=O)CC(O)(/C(C)=N/NC(=O)CCC(=O)N/N=C(\C)C1(O)Cc2c(O)c4c(c(O)c2C(OC2CC(N)C(O)C(C)O2)C1)C(=O)c1c(OC)cccc1C4=O)CC3OC1CC(N)C(O)C(C)O1 (stereo not drawn)
dose: 6.25 mg/kg/injection, schedule: Q01DX010 (sc), vehicle: water
  T/C: 65 % of control
dose: 12.5 mg/kg/injection, schedule: Q01DX010 (sc), vehicle: water
  T/C: 23 % of control

## CN1C(=O)C(=Cc2ccc(O)cc2)C(=O)N(C)C1=O
[1]
  T/C: 114 % of control
[2]
  T/C: 110 % of control
[3]
  T/C: 87 % of control
[4]
  T/C: 68 % of control

## CC(C)CCC(=O)c1ccoc1
dose: 0.75 mg/kg/injection, schedule: Q01DX010 (ip), vehicle: saline with Tween-80
  T/C: 123 % of control
dose: 3.0 mg/kg/injection, schedule: Q01DX010 (ip), vehicle: saline with Tween-80
  T/C: 71 % of control
dose: 6.0 mg/kg/injection, schedule: Q01DX010 (ip), vehicle: saline with Tween-80
  T/C: 73 % of control

## CC(C)CCCCCCCCCCCCC(=O)NCC(=O)NC1C(C)OC(Nc2ncnc3nc[nH]c23)C(O)C1O (stereo not drawn)
dose: 2.0 mg/kg/injection, schedule: Q01DX010 (sc), vehicle: saline with Tween-80
  T/C: 69 % of control
dose: 4.0 mg/kg/injection, schedule: Q01DX010 (sc), vehicle: saline with Tween-80
  T/C: 40 % of control
dose: 8.0 mg/kg/injection, schedule: Q01DX010 (sc), vehicle: saline with Tween-80
  T/C: 32 % of control
dose: 16.0 mg/kg/injection, schedule: Q01DX010 (sc), vehicle: saline with Tween-80
  T/C: 17 % of control

## O=C(CCBr)N1CCN(C(=O)CCBr)CC1
[5]
  T/C: 48 % of control

## Cc1cnc(/C=N\NC(N)=S)c2cccc(N)c12
dose: 31.75 mg/kg/injection, schedule: Q04DX003 (ip), vehicle: saline with Tween-80
  T/C: 74 % of control
dose: 62.5 mg/kg/injection, schedule: Q04DX003 (ip), vehicle: saline with Tween-80
  T/C: 89 % of control
dose: 125.0 mg/kg/injection, schedule: Q04DX003 (ip), vehicle: saline with Tween-80
  T/C: 49 % of control

## CN(C)c1ccc2c(NCCCCCCNc3ccnc4cc(N(C)C)ccc34)ccnc2c1
dose: 37.5 mg/kg/injection, schedule: Q04DX003 (sc), vehicle: distilled water + Tween-80 + alcohol
  T/C: 122 % of control
dose: 75.0 mg/kg/injection, schedule: Q04DX003 (sc), vehicle: distilled water + Tween-80 + alcohol
  T/C: 80 % of control
dose: 150.0 mg/kg/injection, schedule: Q04DX003 (sc), vehicle: distilled water + Tween-80 + alcohol
  T/C: 75 % of control

## c1cc2n(n1)CCN2
dose: 50.0 mg/kg/injection, schedule: Q01DX010 (ip), vehicle: saline
  T/C: 107 % of control
dose: 50.0 mg/kg/injection, schedule: Q01DX010 (sc), vehicle: saline
  T/C: 26 % of control
dose: 100.0 mg/kg/injection, schedule: Q01DX010 (ip), vehicle: saline
  T/C: 70 % of control
dose: 100.0 mg/kg/injection, schedule: Q01DX010 (sc), vehicle: saline
  T/C: 12 % of control
dose: 166.66 mg/kg/injection, schedule: Q04DX003 (sc), vehicle: saline
  T/C: 170 % of control
[6]
  T/C: -33 % of control
dose: 333.33 mg/kg/injection, schedule: Q04DX003 (sc), vehicle: saline
  T/C: 150 % of control
dose: 666.65 mg/kg/injection, schedule: Q04DX003 (sc), vehicle: saline
  T/C: 59 % of control

## CN(Cc1cnc2nc(N)nc(N)c2n1)c1ccc(C(=O)N[C@@H](CCC(=O)O)C(=O)O)cc1
dose: 1.0 mg/kg/injection, schedule: Q01DX010 (sc), vehicle: sodium bicarbonate
  T/C: 72 % of control and 84 % of control
dose: 4.0 mg/kg/injection, schedule: Q01DX010 (sc), vehicle: sodium bicarbonate
  T/C: 47 % of control

## [N-]=[N+]=[N-]
dose: 6.0 mg/kg/injection, schedule: Q04DX003 (ip), vehicle: water
  T/C: 68 % of control
dose: 24.0 mg/kg/injection, schedule: Q04DX003 (ip), vehicle: water
  T/C: 73 % of control

## CC(C)C(N)C(=O)Nc1nncs1 (stereo not drawn)
[7]
  T/C: 102 % of control
[8]
  T/C: 74 % of control
dose: 600.0 mg/kg/injection, schedule: Q04DX003 (sc), vehicle: saline
  T/C: 78 % of control

## O=C(NO)c1ccccc1
[9]
  T/C: 120 % of control
[10]
  T/C: 150 % of control

## CC(=O)O[C@H]1C(=O)[C@@]2(C)[C@H]([C@H](OC(=O)c3ccccc3)[C@]3(O)C[C@H](OC(=O)[C@H](O)[C@@H](NC(=O)c4ccccc4)c4ccccc4)C(C)=C1C3(C)C)[C@]1(OC(C)=O)CO[C@@H]1C[C@@H]2O
[5]
  T/C: 63 % of control
[9]
  T/C: 93 % of control
[10]
  T/C: 68 % of control
dose: 400.0 mg/kg/injection, schedule: Q01DX010 (sc), vehicle: Klucel (hydroxypropylcellulose) (HPC)
  T/C: 51 % of control

## NC(=O)NO
[6]
  T/C: 60 % of control
dose: 400.0 mg/kg/injection, schedule: Q01DX010 (sc), vehicle: saline
  T/C: 105 % of control

## N=c1ccn2c(n1)OC1C(O)C(CO)OC12 (stereo not drawn)
dose: 400.0 mg/kg/injection, schedule: Q04DX003 (sc), vehicle: saline
  T/C: 67 % of control
dose: 800.0 mg/kg/injection, schedule: Q04DX003 (sc), vehicle: saline
  T/C: 48 % of control
dose: 1600.0 mg/kg/injection, schedule: Q04DX003 (sc), vehicle: saline
  T/C: 16 % of control
dose: 3200.0 mg/kg/injection, schedule: Q04DX003 (sc), vehicle: saline
  T/C: 8 % of control

## CCS/C(SC)=C(/c1ccccc1)[P+](c1ccccc1)(c1ccccc1)c1ccccc1
dose: 9.38 mg/kg/injection, schedule: Q04DX003 (sc), vehicle: Klucel (hydroxypropylcellulose) (HPC)
  T/C: 79 % of control
dose: 18.75 mg/kg/injection, schedule: Q04DX003 (sc), vehicle: Klucel (hydroxypropylcellulose) (HPC)
  T/C: 76 % of control
dose: 37.5 mg/kg/injection, schedule: Q04DX003 (sc), vehicle: Klucel (hydroxypropylcellulose) (HPC)
  T/C: 110 % of control

## CN(C)c1nc(N(C)C)nc(N(C)C)n1
dose: 12.5 mg/kg/injection, schedule: Q01DX010 (sc), vehicle: saline with Tween-80
  T/C: 63 % of control
dose: 25.0 mg/kg/injection, schedule: Q01DX010 (sc), vehicle: saline with Tween-80
  T/C: 95 % of control
dose: 60.0 mg/kg/injection, schedule: Q01DX010 (sc), vehicle: saline with Tween-80
  T/C: 51 % of control
dose: 100.0 mg/kg/injection, schedule: Q01DX010 (sc), vehicle: saline with Tween-80
  T/C: 121 % of control
dose: 120.0 mg/kg/injection, schedule: Q01DX010 (sc), vehicle: saline with Tween-80
  T/C: 58 % of control
dose: 200.0 mg/kg/injection, schedule: Q01DX010 (sc), vehicle: saline with Tween-80
  T/C: 74 % of control

## Nc1nc(N)c(N=O)c(Nc2ccc(Br)cc2)n1
[1]
  T/C: 124 % of control
[2]
  T/C: 95 % of control
[3]
  T/C: 229 % of control
[4]
  T/C: 93 % of control

## O=C(CCCCCCC(=O)ON1C(=O)CCC1=O)ON1C(=O)CCC1=O
[1]
  T/C: 104 % of control
[2]
  T/C: 95 % of control
[3]
  T/C: 89 % of control
[4]
  T/C: 72 % of control

## CN(CCN(C)C(=O)CCOS(C)(=O)=O)C(=O)CCOS(C)(=O)=O
dose: 37.5 mg/kg/injection, schedule: Q04DX003 (sc), vehicle: saline
  T/C: 90 % of control
dose: 75.0 mg/kg/injection, schedule: Q04DX003 (sc), vehicle: saline
  T/C: 91 % of control
[7]
  T/C: 86 % of control
[8]
  T/C: 36 % of control

## NC(CNC(=O)CBr)C(=O)O (stereo not drawn)
dose: 75.0 mg/kg/injection, schedule: Q04DX003 (sc), vehicle: water
  T/C: 105 % of control
dose: 150.0 mg/kg/injection, schedule: Q04DX003 (sc), vehicle: water
  T/C: 79 % of control

## CC1=C(/C=C/C(C)=C/C=C/C(C)=C/C(=O)O)C(C)(C)CCC1
dose: 50.0 mg/kg/injection, schedule: Q01DX010 (sc), vehicle: saline with Tween-80
  T/C: 75 % of control

## O=C1NC(O)CCN1C1OC(CO)C(O)C1O (stereo not drawn)
dose: 200.0 mg/kg/injection, schedule: Q01DX010 (sc), vehicle: water
  T/C: 257 % of control
dose: 400.0 mg/kg/injection, schedule: Q01DX010 (sc), vehicle: water
  T/C: 196 % of control
dose: 800.0 mg/kg/injection, schedule: Q01DX010 (sc), vehicle: water
  T/C: 223 % of control
dose: 1600.0 mg/kg/injection, schedule: Q01DX010 (sc), vehicle: water
  T/C: 176 % of control

## CC(C#N)(C#N)N=Nc1ccc(Cl)cc1Cl
[2]
  T/C: 124 % of control
[3]
  T/C: 86 % of control
[4]
  T/C: 102 % of control
